Patent US8415272B2, “Quinoline derivatives and their use as fungicides” (Syngenta Crop Protection LLC, priority 2008, dated 2013)

Columns and labels:
Phytophthora infestans = assay: whole plant or invertebrate; format: in vivo; conditions: in Solanum lycopersicum, foliar, 96 h, read-out: control of fungal infection, Phytophthora infestans
Plasmopara viticola = assay: Leaf disk assay, Plasmopara viticola (downy mildew of grapevine), preventive; format: in vivo; conditions: foliar, 168 h, grapevine leaf disks, assessed seven days after inoculation, read-out: control of fungal infection, Plasmopara viticola
[1] = test system: Erysiphe graminis f.sp. tritici; assay: Leaf disk assay, Erysiphe graminis f.sp. tritici (wheat powdery mildew), preventive; format: in vivo; conditions: Blumeria graminis, foliar, 96 h, wheat leaf segments, assessed four days after inoculation, read-out: control of fungal infection, Erysiphe graminis f.sp. tritici
Summary of the method: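 Preventive protocol: compound at 200 ppm in water (from DMSO) sprayed onto wheat leaf segments on agar, dried 12–24 h, then spore-inoculated. Fungicidal activity was assessed four days post-inoculation.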

[2] = test system: Puccinia recondita f.sp. tritici; assay: Leaf disk assay, Puccinia recondita f.sp. tritici (wheat brown rust), preventive; format: in vivo; conditions: foliar, 216 h, wheat leaf segments, assessed nine days after inoculation, read-out: control of fungal infection, Puccinia recondita f.sp. tritici
Pyrenophora teres = assay: Leaf disk assay, Pyrenophora teres (barley net blotch), preventive; format: in vivo; conditions: foliar, 96 h, barley leaf segments, assessed four days after inoculation, read-out: control of fungal infection, Pyrenophora teres
Protocol: The compounds were tested in a leaf disk assay, with methods described below. The test compounds were dissolved in DMSO and diluted into water to 200 ppm. In the case of the test on Pythium ultimum, they were dissolved in DMSO and diluted into water to 20 ppm. Pyrenophora teres (barley net blotch): Barley leaf segments were placed on agar in a 24-well plate and sprayed with a solution of the test compound. After allowing to dry completely, for between 12 and 24 hours, the leaf disks were inoculated with a spore suspension of the fungus. After appropriate incubation the activity of a compound was assessed four days after inoculation as preventive fungicidal activity.

Septoria nodorum = assay: Leaf disk assay, Septoria nodorum (wheat glume blotch), preventive; format: in vivo; conditions: Parastagonospora nodorum, foliar, 96 h, wheat leaf segments, assessed four days after inoculation, read-out: control of fungal infection, Septoria nodorum
Septoria tritici = assay: Growth inhibition in nutrient broth, Septoria tritici (leaf blotch), photometric; format: cell-based; conditions: Zymoseptoria tritici, PDB broth, 24 C, 72 hrs, read-out: control of fungal infection, Septoria tritici
Pythium ultimum = assay: Growth inhibition in potato dextrose broth, Pythium ultimum (damping off), photometric; format: cell-based; conditions: Globisporangium ultimum, 24° C., 48 hours, read-out: control of fungal infection, Pythium ultimum
Summary of the method: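 Growth inhibition was read photometrically at 48 hours after incubation at 24° C. Test compound was diluted from DMSO to 20 ppm in water and combined with potato dextrose broth seeded with Pythium ultimum mycelial fragments.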

Fusarium culmorum = assay: Growth inhibition in nutrient broth, Fusarium culmorum (root rot), photometric; format: cell-based; conditions: 48 h, read-out: control of fungal infection, Fusarium culmorum
Summary of the method: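 Fusarium culmorum conidia in potato dextrose broth were added to compounds in DMSO. Plates were incubated at 24 C for 48 hrs, with growth inhibition read photometrically. […]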

C#Cc1cnc2ccc(OC(SC)C(=O)NC(C)(C#C)COC)cc2c1 (centres unmarked) [Example 129]
≥ 60%: pest or weed control at 200 ppm (Phytophthora infestans) | pest or weed control at 200 ppm (Plasmopara viticola) | pest or weed control at 200 ppm [1] | pest or weed control at 200 ppm [2] | pest or weed control at 200 ppm (Pyrenophora teres) | pest or weed control at 200 ppm (Septoria nodorum) | inhibition of growth at 60 ppm (Septoria tritici) | inhibition of growth at 20 ppm (Pythium ultimum)

C#Cc1cnc2ccc(OC(SC)C(=O)NC(C)(C)CF)cc2c1 (centres unmarked) [Example 99]
≥ 60%: pest or weed control at 200 ppm (Phytophthora infestans) | pest or weed control at 200 ppm (Plasmopara viticola) | pest or weed control at 200 ppm [1] | pest or weed control at 200 ppm [2] | pest or weed control at 200 ppm (Pyrenophora teres) | pest or weed control at 200 ppm (Septoria nodorum) | inhibition of growth at 60 ppm (Septoria tritici) | inhibition of growth at 60 ppm (Fusarium culmorum)

C#Cc1cnc2ccc(OC(SC)C(=O)NC3(C)CCC3)cc2c1 (centres unmarked) [Example 202]
≥ 60%: pest or weed control at 200 ppm (Phytophthora infestans) | pest or weed control at 200 ppm (Plasmopara viticola) | pest or weed control at 200 ppm [1] | pest or weed control at 200 ppm [2] | pest or weed control at 200 ppm (Pyrenophora teres) | pest or weed control at 200 ppm (Septoria nodorum) | inhibition of growth at 60 ppm (Septoria tritici) | inhibition of growth at 20 ppm (Pythium ultimum)

C#Cc1cnc2c(C)cc(OC(CC)C(=O)NC(C)(C)C)cc2c1 (centres unmarked) [Example 115]
≥ 60%: pest or weed control at 200 ppm (Phytophthora infestans) | pest or weed control at 200 ppm (Plasmopara viticola) | pest or weed control at 200 ppm [1] | pest or weed control at 200 ppm [2] | pest or weed control at 200 ppm (Pyrenophora teres) | pest or weed control at 200 ppm (Septoria nodorum) | inhibition of growth at 60 ppm (Septoria tritici) | inhibition of growth at 60 ppm (Fusarium culmorum)

C#Cc1cnc2c(C)cc(OC(CC)C(=O)NC(C)(C)C#C)cc2c1 (centres unmarked) [Example 114]
≥ 60%: pest or weed control at 200 ppm (Phytophthora infestans) | pest or weed control at 200 ppm (Plasmopara viticola) | pest or weed control at 200 ppm [1] | pest or weed control at 200 ppm [2] | pest or weed control at 200 ppm (Pyrenophora teres) | pest or weed control at 200 ppm (Septoria nodorum) | inhibition of growth at 60 ppm (Septoria tritici) | inhibition of growth at 60 ppm (Fusarium culmorum)

C#CCOCC(C)(C)NC(=O)C(Oc1cc(Cl)c2ncc(C#C)cc2c1)SC (centres unmarked) [Example 76]
≥ 60%: pest or weed control at 200 ppm (Phytophthora infestans) | pest or weed control at 200 ppm (Plasmopara viticola) | pest or weed control at 200 ppm [1] | pest or weed control at 200 ppm [2] | pest or weed control at 200 ppm (Pyrenophora teres) | pest or weed control at 200 ppm (Septoria nodorum) | inhibition of growth at 60 ppm (Septoria tritici) | inhibition of growth at 20 ppm (Pythium ultimum)

C#Cc1cnc2c(C)cc(OC(SC)C(=O)NC(C)(C)COCC)cc2c1 (centres unmarked) [Example 95]
≥ 60%: pest or weed control at 200 ppm (Phytophthora infestans) | pest or weed control at 200 ppm (Plasmopara viticola) | pest or weed control at 200 ppm [1] | pest or weed control at 200 ppm [2] | pest or weed control at 200 ppm (Pyrenophora teres) | pest or weed control at 200 ppm (Septoria nodorum) | inhibition of growth at 60 ppm (Septoria tritici) | inhibition of growth at 20 ppm (Pythium ultimum)

CSC(Oc1ccc2ncc(C#CCF)cc2c1)C(=O)NC(C)(C)C (centres unmarked) [Example 144]
≥ 60%: pest or weed control at 200 ppm (Phytophthora infestans) | pest or weed control at 200 ppm (Plasmopara viticola) | pest or weed control at 200 ppm [1] | pest or weed control at 200 ppm (Pyrenophora teres) | pest or weed control at 200 ppm (Septoria nodorum) | inhibition of growth at 60 ppm (Septoria tritici) | inhibition of growth at 60 ppm (Fusarium culmorum) | inhibition of growth at 20 ppm (Pythium ultimum)

C#Cc1cnc2c(C)cc(OC(SC)C(=O)NC(C)(C#C)COC)cc2c1 (centres unmarked) [Example 135]
≥ 60%: pest or weed control at 200 ppm (Phytophthora infestans) | pest or weed control at 200 ppm (Plasmopara viticola) | pest or weed control at 200 ppm [1] | pest or weed control at 200 ppm [2] | pest or weed control at 200 ppm (Pyrenophora teres) | pest or weed control at 200 ppm (Septoria nodorum) | inhibition of growth at 60 ppm (Septoria tritici) | inhibition of growth at 20 ppm (Pythium ultimum)

C#Cc1cnc2c(Cl)cc(OC(SC)C(=O)NC(C)(C)C#CCOC)cc2c1 (centres unmarked) [Example 62]
≥ 60%: pest or weed control at 200 ppm (Phytophthora infestans) | pest or weed control at 200 ppm (Plasmopara viticola) | pest or weed control at 200 ppm [1] | pest or weed control at 200 ppm [2] | pest or weed control at 200 ppm (Pyrenophora teres) | pest or weed control at 200 ppm (Septoria nodorum) | inhibition of growth at 60 ppm (Septoria tritici)

C#Cc1cnc2c(Cl)cc(OC(SC)C(=O)NC(C)(C)COC)cc2c1 (centres unmarked) [Example 74]
≥ 60%: pest or weed control at 200 ppm (Phytophthora infestans) | pest or weed control at 200 ppm (Plasmopara viticola) | pest or weed control at 200 ppm [1] | pest or weed control at 200 ppm [2] | pest or weed control at 200 ppm (Pyrenophora teres) | pest or weed control at 200 ppm (Septoria nodorum) | inhibition of growth at 60 ppm (Septoria tritici) | inhibition of growth at 20 ppm (Pythium ultimum)

C#Cc1cnc2c(Cl)cc(OC(SC)C(=O)NC(C)(C)C#CCC)cc2c1 (centres unmarked) [Example 122]
≥ 60%: pest or weed control at 200 ppm (Phytophthora infestans) | pest or weed control at 200 ppm (Plasmopara viticola) | pest or weed control at 200 ppm [1] | pest or weed control at 200 ppm [2] | pest or weed control at 200 ppm (Pyrenophora teres) | pest or weed control at 200 ppm (Septoria nodorum) | inhibition of growth at 60 ppm (Septoria tritici) | inhibition of growth at 20 ppm (Pythium ultimum)

C#CCOCC(C)(C)NC(=O)C(Oc1cc2cc(C#C)cnc2cc1F)SC (centres unmarked) [Example 109]
≥ 60%: pest or weed control at 200 ppm (Phytophthora infestans) | pest or weed control at 200 ppm (Plasmopara viticola) | pest or weed control at 200 ppm [1] | pest or weed control at 200 ppm [2] | pest or weed control at 200 ppm (Pyrenophora teres) | pest or weed control at 200 ppm (Septoria nodorum) | inhibition of growth at 60 ppm (Septoria tritici) | inhibition of growth at 60 ppm (Fusarium culmorum)

C#Cc1cnc2c(Cl)cc(OC(SC)C(=O)NC3(C)CCC3)cc2c1 (centres unmarked) [Example 203]
≥ 60%: pest or weed control at 200 ppm (Phytophthora infestans) | pest or weed control at 200 ppm (Plasmopara viticola) | pest or weed control at 200 ppm [1] | pest or weed control at 200 ppm [2] | pest or weed control at 200 ppm (Pyrenophora teres) | pest or weed control at 200 ppm (Septoria nodorum) | inhibition of growth at 60 ppm (Septoria tritici) | inhibition of growth at 20 ppm (Pythium ultimum)

C#Cc1cnc2cc(F)c(OC(SC)C(=O)NC(C)(C)COC)cc2c1 (centres unmarked) [Example 108]
≥ 60%: pest or weed control at 200 ppm (Phytophthora infestans) | pest or weed control at 200 ppm (Plasmopara viticola) | pest or weed control at 200 ppm [1] | pest or weed control at 200 ppm [2] | pest or weed control at 200 ppm (Pyrenophora teres) | pest or weed control at 200 ppm (Septoria nodorum) | inhibition of growth at 60 ppm (Septoria tritici) | inhibition of growth at 60 ppm (Fusarium culmorum)

C#Cc1cnc2c(C)cc(OC(SC)C(=O)NC(C)(C)COCOC)cc2c1 (centres unmarked) [Example 68]
≥ 60%: pest or weed control at 200 ppm (Phytophthora infestans) | pest or weed control at 200 ppm (Plasmopara viticola) | pest or weed control at 200 ppm [1] | pest or weed control at 200 ppm [2] | pest or weed control at 200 ppm (Pyrenophora teres) | pest or weed control at 200 ppm (Septoria nodorum) | inhibition of growth at 60 ppm (Septoria tritici)

C#Cc1cnc2ccc(OC(SC)C(=O)NC(C)(C)C#N)cc2c1 (centres unmarked) [Example 82]
≥ 60%: pest or weed control at 200 ppm (Phytophthora infestans) | pest or weed control at 200 ppm (Plasmopara viticola) | pest or weed control at 200 ppm [1] | pest or weed control at 200 ppm [2] | pest or weed control at 200 ppm (Pyrenophora teres) | pest or weed control at 200 ppm (Septoria nodorum) | inhibition of growth at 60 ppm (Septoria tritici) | inhibition of growth at 20 ppm (Pythium ultimum)
